Assays:
KCNQ channels = assay: Thallium flux assay for KCNQ channel openers; type: cell-based; conditions: HEK-293 cells stably transfected with a KCNQ family member
Summary of the method: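 HEK-293 lines stably expressing individual KCNQ members, loaded with BTC-AM in chloride-free buffer pH 7.3, compound added (1% DMSO final) before 7.5 mM Tl2SO4 stimulus; fluorescence read 60 s on FLIPR. Minimal active concentration at ≥4 SD above negative controls; EC50 from 10-point logistic fit.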

[1] = system: systemic polyneuropathy nerve injury-induced tactile allodynia; assay: Diabetic model of neuropathic pain (Streptozoticin & von Frey test); type: in vivo, Sprague Dawley rats; conditions: 10 mg/kg, i.v.; STZ diabetic rats, von Frey thresholds over 90 min
Protocol: Diabetic model of neuropathic pain (Streptozoticin & von Frey test). To test agents for activity against systemic polyneuropathy nerve injury-induced tactile allodynia, animals were treated with streptozoticin (STZ) to create a diabetic condition by selective cytotoxic action upon pancreatic β-islet cells that produce insulin following the method of Courteix, et al. (Courteix C., et al., (1993) Pain, April; 53(1):81-8). In brief, male Sprague Dawley rats (wt. 200-275 g) received an injection of STZ (75 mg/kg, i.p.) and diabetes was confirmed three weeks after STZ injection by measurement of tail vein blood glucose levels. After 3-4 weeks, paw withdrawal to light touch was assessed as described by Chaplan et al. (Chaplan S. R., et al., (1994) J Neurosci Methods, July; 53(1):55-63). In brief, rats are placed in a plastic cage with a wire mesh bottom and allowed to acclimate for 15-30 minutes, until cage exploration and grooming stops. […] After acclimation, baseline von Frey thresholds were assessed for the injured hindpaw at −15 min. […] Following drug administration, von Frey thresholds were measured at 15, 30, 60 and 90 min. Data were analyzed by a 2-way repeated measures analysis of variance followed by Dunnett's test (p<0.05). […]

EC50 (KCNQ channels; thallium flux, 10 point concentration series): < 50 nM
Compound: CC(NC(=O)c1sc(-c2ccccc2F)nc1C(F)(F)F)c1cccc(OC(F)(F)F)c1 (stereo not drawn) [Example 21, 2-(2-fluorophenyl)-4-(trifluoromethyl)-N-[1-[3-(trifluoromethoxy)phenyl]ethyl]-5-thiazolecarboxamide]
Min. conc. response (KCNQ channels; minimal active concentration: lowest concentration giving signal amplitude >= four standard deviations of negative controls): 0.3 µM | AUC (Δ % MPE) [1]: 28 (10 mg/kg, i.v.) Δ % MPE
